Results reported in patent publication US10076511B2, “Bisamide derivative of dicarboxylic acid as an agent for stimulating tissue regeneration and recovery of diminished tissue function” (TREAMID GmbH, priority 2015, dated 2018).
“And” between values parts separate entries of the source, which are not always exact repeats. Identical values can stand only once.

Key:
male Wistar rats [1] = test: Sexual incentive motivation test, rats of late reproductive age; assay type: in vivo, rat
Description: Erectile dysfunction was simulated by using animals of late and senile reproductive age (14-19 months). Suppression of sexual motivation was simulated by using animals of late reproductive age (14 months).
Experiments on studying the effect of Treamid on sexual motivation were carried out on 40 male Wistar rats (14 months of age). A model for a targeted search for novel agents for the therapy of this pathology was used as an experimental model of sexual incentive motivation in rats [Xi Chu, Ekaterina S. Zhavbert, Julia L. Dugina, Irina A. Kheyfets, Svetlana A. Sergeeva, Oleg I. Epstein, Anders Agmo Sindenafil and a compound stimulating endothelial NO synthase modity sexual incentive motivation and copulatory behavior in male wistar and fisher 344//J Sex Med.—2008.—5.—P. 2085-2009]. This model is based on the fact that rats are social animals and seek not only sexual, but also social contacts. The assessment of sexual motivation involves determining the time spent near a sexual stimulus and the score of preference in animals without direct contact with “social” and “sexual” stimuli. The sexual stimulus was a female rat in estrus stage, and the social stimulus was a male rat.

male Wistar rats [2] = test: Pair-test of sexual behavior, seasonal suppression of copulatory activity; assay type: in vivo, rat
Description: Seasonal suppression of reproductive activity was simulated by carrying out the experiment in the winter period (end of December). As a background group, intact animals (3 months of age) were tested in June.
The experiments were carried out on 27 male Wistar rats of reproductive age (3 months). Treamid at a dose of 5 mg/kg and reference drug Sildenafil (at a dose of 3 mg/kg) were administered intragastrically […], once daily for 15 days. The sexual activity was estimated by the pair-test of sexual behavior. The test was carried out twice: before administration and one hour after the last administration of Treamid. The rats of the control groups receiving the solvent were tested at the same time as the animals of the experimental groups.
The experiment also comprised the use of female rats in the estrus stage caused by a preliminary 4-fold injection of the Synestrel. The effectiveness of Treamid was estimated by the following indices: latency until the first mating attempt (LFM), the number of mating attempts (MN), and the number of ejaculations (EN). The obtained data were compared with those of the same animals before the administration of the tested compound and with the data of the control group (the second test).

male C57BL/6 mice = test: Fertility of male mice on a metabolic syndrome model; assay type: in vivo, mouse
Description: Metabolic disorders were simulated as follows: on Day 2 after birth, male C57Bl/6 mice were injected with streptozotocin at a dose of 200 mg/kg, once, subcutaneously in the withers area, and the volume of the injected solution was 30 μl. From week 4 after birth, the animals were transferred to a high-fat diet. For this purpose, the used feed was enriched with heavy saturated fats (30% fat) (Siff EF R/M with 30% Fat Cat No. E15116-34, Germany). The animals were held on the high-fat diet for 42 days (from Day 28 to Day 70 of the study). Treamid was administered at a dose of 10 mg/kg intragastrically once daily, every day from Day 49 to Day 80 of the experiment. The control animals received the equivalent volume of a solvent, instead of the test compound.
The fertility of the males was estimated as follows: intact females were placed to the males of the experimental groups in a ratio of 1:2 for a period of from Day 70 to Day 80 of the study. During this period, the males of the experimental group continued to be administered intragastrically Treamid once daily at a dose of 10 mg/kg.
At the end of the mating period, on Day 80 of the study, the males were euthanized in a CO2 chamber. The blood of the animals was taken and analyzed for serum levels of free testosterone by enzyme immunoassay. Euthanasia was performed in the morning hours from 9:30 to 11:00.
The females were sacrificed in the CO2 chamber on Day 18 of pregnancy. The fetuses in the uterus were examined. The fertility index (FI) was calculated to assess fertility: FI=number of fertilized females/number of females placed with males×100%.

female C57Bl/6 mice = test: Elastase-induced pulmonary emphysema model; assay type: in vivo, mouse
Description: Pulmonary emphysema was induced in female C57Bl/6 mice by a single intratracheal administration of elastase (Sigma, USA) at a dose of 0.6 U/mouse in 30 μl of 0.9% NaCl [Lüthje L., Raupach T., Michels H. et al.//Respiratory Research 2009, 10: 7]. The day of operation was taken as Day 0 of the experiment. Treamid was administered at a dose of 10 mg/kg intragastrically once daily, every day from Day 7 to Day 60 of the study. On Days 7, 14, 30 and 60, the animals were euthanized in a CO2 chamber, and their lungs were isolated.
The dynamics and severity of the developed emphysema in the lung tissue were assessed on histological preparations. For this, the lungs were fixed in a 10% neutral formalin solution and then poured into paraffin by the standard method. The preparations of the lung apex, middle lung field, and lower lung field of a thickness of 5 μm were prepared from the deparaffined sections, and stained with hematoxylin and eosin by the standard procedure. Further, photographs of the lung apex, middle lung field, and lower lung field were made, and the localization and area of emphysema were studied by using graphics processing software. The area of emphysematously enlarged lung tissue (% of normal tissue) was measured as an estimated score of the development of emphysema, and blood vessels and bronchi were excluded from the calculations [ArrateMunoz-Barrutia, Mario Ceresa, Xabier Artaechevarria, Luis M. Montuenga, and Carlos Ortiz-de-Solorzano. Quantification of Lung Damage in an Elastase-Induced Mouse Model of Emphysema//International Journal of Biomedical Imaging. Volume 2012, Article ID 734734, 11 pages; Susumu Sato, Erzsebet Bartoldk-Suki, Harikrishnan Parameswaran, Hiroshi Hamakawal and Bela Suki. Scale dependence of structure-function relationship in the emphysematous mouse lung//Front. Physiol. 6:146. doi: 10.3389/fphys. 2015.00146].

[3] = 14-month rats, Second test, after administration of the test compound, Treamid 5 mg/kg, Sildenafil 3 mg/kg, 14 days
[4] = 14-month rats, first test, before administration
[5] = first test, before administration, winter period
[6] = second test, one hour after last administration, Treamid 5.0 mg/kg, Sildenafil 3 mg/kg intragastrically, 15 days
[7] = Day 7, Treamid 10 mg/kg intragastrically from Day 7

O=C(CCCC(=O)NCCc1ncc[nH]1)NCCc1ncc[nH]1 [Treamid]
A, sec (time spent in the sexual stimulus zone) (male Wistar rats [1]; [3]): 154.00 ± 41.83#⋄ sec
B, sex (time spent in the social stimulus zone) (male Wistar rats [1]; [3]): 95.60 ± 29.66 s
PS, s. u. (preference score) (male Wistar rats [1]; [3]): 0.64±0.09 s. u. and 0.64 ± 0.09⋄ s. u.
effect on sexual motivation (male Wistar rats [1]; 14-month rats, Treamid 5 mg/kg, Sildenafil 3 mg/kg): has a stimulating effect
A, sec (time spent in the sexual stimulus zone) (male Wistar rats [1]; [4]): 132.30 ± 23.69 s
B, sec (time spent in the social stimulus zone) (male Wistar rats [1]; [4]): 113.60 ± 13.77 s
PS, s. u. (preference score) (male Wistar rats [1]; [4]): 0.51 ± 0.06 s. u.
decrease of time spent in the social stimulus zone compared with the control (male Wistar rats [1]; Treamid 5 mg/kg, second test): 2 times
decrease of latency until the first mount after administration compared to before (male Wistar rats [2]; Treamid 5 mg/kg): 1.8 times
increase of total number of mating attempts (male Wistar rats [2]; Treamid 5 mg/kg, statistically insignificant): 1.8 times
LFM (male Wistar rats [2]; [5]): 462.00 ± 117.81 s
the number of ejaculations, % (male Wistar rats [2]; [5]): 0%
the number of mounts, abs. (male Wistar rats [2]; [5]): 3.67 ± 1.34 abs.
LFM, sec (male Wistar rats [2]; [6]): 251.33 ± 103.86♦ sec
the number of mounts, abs. (male Wistar rats [2]; [6]): 6.56 ± 1.68 abs.
increase of free testosterone in the blood serum in comparison with intact animals (male C57BL/6 mice; 10 mg/kg, Day 80): 16%
increase of free testosterone in the blood serum in comparison with the pathological control (male C57BL/6 mice; 10 mg/kg, Day 80): 2 times
Free testosterone in the blood serum (pg/ml) (male C57BL/6 mice; Day 80, Treamid 10 mg/kg intragastrically Day 49-80): 3.46 ± 1.87*• pg/ml
fertility index relative to untreated metabolic disorders (pathological control) (male C57BL/6 mice; Treamid 10 mg/kg Day 49-80): 1.8 times
Fertility index, % (male C57BL/6 mice; mating Day 70-80, Treamid 10 mg/kg Day 49-80): 55*• %
The area of emphysematously enlarged lung tissue (% of normal), Lower lung field (female C57Bl/6 mice; [7]): 41.3 ± 1.82 % of normal
The area of emphysematously enlarged lung tissue (% of normal), Lung apex (female C57Bl/6 mice; [7]): 0.9 ± 0.12*• % of normal
The area of emphysematously enlarged lung tissue (% of normal), Middle lung field (female C57Bl/6 mice; [7]): 5.4 ± 0.55 % of normal
The area of emphysematously enlarged lung tissue (% of normal), Lower lung field (female C57Bl/6 mice; Day 14, Treamid 10 mg/kg): 42.6 ± 1.79*• % of normal
The area of emphysematously enlarged lung tissue (% of normal), Lung apex (female C57Bl/6 mice; Day 14, Treamid 10 mg/kg): 0.7 ± 0.09*• % of normal
The area of emphysematously enlarged lung tissue (% of normal), Middle lung field (female C57Bl/6 mice; Day 14, Treamid 10 mg/kg): 29.03 ± 1.76 % of normal
The area of emphysematously enlarged lung tissue (% of normal), Lower lung field (female C57Bl/6 mice; Day 30, Treamid 10 mg/kg): 32.8 ± 3.78*• % of normal
The area of emphysematously enlarged lung tissue (% of normal), Lung apex (female C57Bl/6 mice; Day 30, Treamid 10 mg/kg): 2.4 ± 1.6*• % of normal
The area of emphysematously enlarged lung tissue (% of normal), Middle lung field (female C57Bl/6 mice; Day 30, Treamid 10 mg/kg): 18.5 ± 2.91 % of normal
The area of emphysematously enlarged lung tissue (% of normal), Lower lung field (female C57Bl/6 mice; Day 60, Treamid 10 mg/kg): 40.0 ± 3.57*• % of normal
The area of emphysematously enlarged lung tissue (% of normal), Lung apex (female C57Bl/6 mice; Day 60, Treamid 10 mg/kg): 3.6 ± 0.26*• % of normal
The area of emphysematously enlarged lung tissue (% of normal), Middle lung field (female C57Bl/6 mice; Day 60, Treamid 10 mg/kg): 24.9 ± 3.11 % of normal
